Laboratory results reported in publication PMC12155845, “Antimicrobial Activity of Copper(II), Nickel(II) and Zinc(II) Complexes with Semicarbazone and Thiosemicarbazone Ligands Derived from Substituted Salicylaldehydes” (Molecules, 2025).
Entries after “also recorded” stand apart in the source; their conditions may differ. Where two headings read alike, the source gives them in different places.

What was measured:
[1] = test system: Staphylococcus aureus ATCC 25923; test: Microdilution antimicrobial assay (CLSI), S. aureus; format: cell-based; settings: for Microbial growth, S. aureus (Table S1): ligand at 100 μM, mean values and standard deviations; for Percentage values of microbial growth, S. aureus: compound at 100 μM, mean and standard deviation, 24 h, relative to positive controls; for Antimicrobial activity against S. aureus (in words): up to 100 μM
Method: (§1) Reference strains of Staphylococcus aureus (ATCC 25923), Escherichia coli (ATCC 25922) and Candida albicans (ATCC 10231) were used in this study as model systems. These laboratory strains were purchased from the American Type Culture Collection (ATCC) (Manassas, VA, USA). […] The antimicrobial properties of the metal complexes were determined by a previously established microdilution method in agreement with the Clinical and Laboratory Standard Institute (CLSI) guidelines. […] The metal complexes were two-fold serially diluted and tested in the range of 100-0.19 μM. Positive controls (in regular media), negative controls (only compounds), solvent controls (DMSO dilutions) and the reference drugs were included in the tests. The plate was incubated at 37 °C for 24 h, and the OD630nm was measured.

[2] = test system: HEL 299 fibroblasts (ATCC-CCL-137); test: Cell viability and proliferation assay (WST8/CCK-8); format: cell-based, human; settings: for Cell proliferation, HEL 299 (Table S1): ligand at 100 μM, mean values and standard deviations; for Percentage values of cell viability, HEL 299: compound at 100 μM, mean and standard deviation, relative to untreated controls
Method: HEL 299 cells, obtained from the American Type Culture Collection (ATCC-CCL-137), were selected to investigate the effect of the metal complexes on non-malignant human fibroblasts. Briefly, cells were cultured in Eagle’s Minimum Essential Medium (EMEM) supplemented with 10% fetal bovine serum (FBS), 100 U/mL penicillin and 100 µg/mL streptomycin at 37 °C with 5% CO2. For the biological assays, cells were grown in 96-well plates at 10^4 cells/well. After 24 h of incubation at 37 °C, the monolayer was treated with 100 µL of medium containing the 2-fold serial dilutions of the compounds in the range 100–0.19 µM. Cell viability was assessed by a colorimetric WST8-based assay according to the manufacturer’s instructions (CCK-8, Cell Counting Kit-8, Dojindo Molecular Technologies, Rockville, MD, USA) by measuring the OD at 450 nm. Data are expressed as the percentage of cell viability relative to the untreated controls. The CC50 was obtained on the corresponding dose–response curves generated as previously reported for IC50 values.

[3] = test system: Escherichia coli ATCC 25922; test: Microdilution antimicrobial assay (CLSI), E. coli; format: cell-based; settings: for Microbial growth, E. coli (Table S1): ligand at 100 μM, mean values and standard deviations; for Percentage values of microbial growth, E. coli: mean and standard deviation, 24 h
Method: as §1

[4] = test system: Candida albicans ATCC 10231; test: Microdilution antifungal assay (CLSI), C. albicans; format: cell-based; settings: for Percentage values of microbial growth, C. albicans: mean and standard deviation
Excerpt: Reference strains of Staphylococcus aureus (ATCC 25923), Escherichia coli (ATCC 25922) and Candida albicans (ATCC 10231) were used in this study as model systems. These laboratory strains were purchased from the American Type Culture Collection (ATCC) (Manassas, VA, USA). The cultures were routinely grown on 5% blood agar plates or Sabouraud Dextrose agar plates (Biolife Italiana S.r.l., Milan, Italy) and used freshly in the assays.
The antimicrobial properties of the metal complexes were determined by a previously established microdilution method in agreement with the Clinical and Laboratory Standard Institute (CLSI) guidelines. […] The metal complexes were two-fold serially diluted and tested in the range of 100–0.19 µM. Positive controls (in regular media), negative controls (only compounds), solvent controls (DMSO dilutions) and the reference drugs were included in the tests. The plate was incubated at 37 °C for 24 h, and the OD630nm was measured.

pmaxGFP plasmid DNA = test: In vitro DNA cleavage/mobility shift assay (agarose gel electrophoresis); format: biochemical; settings: for Plasmid DNA cleavage in presence of H2O2 (in words): 100 µM of sample, 200 ng plasmid DNA, 10 mM H2O2, 37 °C, 2 h
Method: The nuclease activity of the metal complexes was investigated by means of gel electrophoresis after incubating the reaction mixtures (100 µM of sample and 200 ng of plasmid DNA) at 37 °C for 2 h. […] Thus, the assays with the metal complexes were performed in the absence and presence of H2O2 at 10 mM to check whether the DNA cleavage and damage take place through a hydrolytic or an oxidative mechanism.
Studies of the interactions between the metal compounds and plasmid DNA were carried out by agarose gel electrophoresis. Thus, 200 ng of pmaxGFP plasmid, 3527 bps, (Lonza, Basel, Switzerland) were incubated with the metal compounds at 100 μM in the absence or presence of 10 mM of H2O2 in Tris-HCl buffer (NaCl 50 mM, Tris-HCl 5 mM, pH 7.20). The mixture was incubated at 37 °C for 2 h, then the reactions were quenched by adding 5 μL of the loading buffer solution and analyzed by 1% agarose gel electrophoresis.

[5] = test system: human red blood cells (hRBCs); test: Hemolytic activity assay; format: cell-based
Method: The hemolytic activity of the metal complexes was evaluated as the amount of hemoglobin released by the disruption of human red blood cells (hRBCs). Briefly, a suspension of hRBCs (4% w/v in PBS) was prepared from the peripheral blood of anonymous blood donors available for research purposes. […] Then, the supernatants were spectrophotometrically evaluated at OD405nm. Untreated hRBCs (in PBS) and hRBCs incubated with 1% Triton X-100 were employed as negative and positive controls, respectively. The hemolysis percentage was calculated as [OD405nm (sample) − OD405nm (negative control)]/[OD405nm (positive control) − OD405nm (negative control)] × 100. Minimal hemolytic concentrations (MHCs) were defined as the compound concentration causing 10% hemolysis.

[6] = ligand at 100 μM, mean values and standard deviations
[7] = compound at 100 μM, 1 h at 37 °C
[8] = mean values and 95% Confidence Interval, dose–response

| Compound | Microbial growth, S. aureus (Table S1) [1] | Cell proliferation, HEL 299 (Table S1) [2] | Microbial growth, E. coli (Table S1) [3] | Microbial growth, C. albicans (Table S1) [4, 6] | Percentage values of microbial growth, S. aureus [1] [%] | Percentage values of cell viability, HEL 299 [2] [%] | Percentage values of microbial growth, E. coli ([3]; compound at 100 μM) [%] | Percentage values of microbial growth, C. albicans ([4]; compound at 100 μM, 24 h) [%] | Percentage values of hemolytic activity, hRBCs [5, 7] [%] | further results |
| --- | --- | --- | --- | --- | --- | --- | --- | --- | --- | --- |
| COc1cc(S(=O)(=O)[O-])cc(/C=N/NC(N)=S)c1O.[Na+] [NaH2L4] | 99.0 ± 3.5 | 85.6 ± 10.2 | 100.2 ± 1.0 | 95.6 ± 3.2 | – | – | – | – | – | – |
| N.N.[Cl][Pt][Cl] [CP, cisplatin, reference compound] | – | – | – | – | – | – | – | – | – | Binding interaction with plasmid DNA, electrophoresis mobility (in words) (pmaxGFP plasmid DNA; cisplatin at 500, 100 and 50, 37°C for 2 h, pmaxGFP): cause a shift of the electrophoresis mobility |
| CCCCCCCC(=O)N/N=C/c1cc(S(=O)(=O)[O-])cc(OC)c1[O-].[Cl-].[Cu+2].[Na+] [Compound 13, [NaCu(HL7)Cl]] | – | – | – | – | 99.8 ± 3.6 | 88.7 ± 0.9 | 105.2 ± 2.0 | 81.7 ± 5.4 | <5 | Plasmid DNA cleavage in presence of H2O2 (in words) (pmaxGFP plasmid DNA): only exception |
| COc1cccc(/C=N/NC(N)=O)c1[O-].[Cl-].[Cu+2] [Compound 5, [Cu(HL3)Cl]∙0.5H2O∙0.5CH3OH] | – | – | – | – | 83.6 ± 1.4 | 20.3 ± 0.6 | 55.8 ± 0.5 | 77.8 ± 2.0 | <5 | Antimicrobial activity against S. aureus (in words) [1]: lack of antibacterial activity; Reduction of E. coli growth compared to the untreated cells ([3]; compound at 100 μM): 44.2%; Antimicrobial activity against E. coli (in words) ([3]; up to 100 μM): lack of antibacterial activity; Plasmid DNA cleavage in presence of H2O2 (in words) (pmaxGFP plasmid DNA): degrade plasmid DNA |
| COc1cc(S(=O)(=O)[O-])cc(/C=N/NC(N)=S)c1[O-].[Cl-].[Cu+2].[Na+] [Compound 8] | – | – | – | – | 106.3 ± 1.6 | 90.4 ± 0.6 | 104.1 ± 9.3 | 89.9 ± 5.3 | <5 | – |
| CCNC(=S)N/N=C/c1cc(S(=O)(=O)[O-])cc(OC)c1[O-].[Cl-].[Cu+2].[Na+] [Compound 9] | – | – | – | – | 104.8 ± 0.7 | 85.8 ± 1.7 | 96.6 ± 1.1 | 91.4 ± 2.5 | <5 | – |
| CCCCCCCC(=O)N/N=C/c1cc(S(=O)(=O)[O-])cc(OC)c1O.[Na+] [NaH2L7] | 102.2 ± 1.9 | 87.6 ± 4.9 | 101.9 ± 1.3 | 83.2 ± 2.7 | – | – | – | – | – | – |
| COc1cc(S(=O)(=O)[O-])cc(/C=N/NC(N)=O)c1[O-].[Cl-].[Cu+2].[Na+] [Compound 10, [NaCu(HL6)Cl]] | – | – | – | – | 97.8 ± 1.4 | 63.5 ± 3.8 | 99.8 ± 1.8 | 71.6 ± 1.3 | <5 | – |
| CCNC(=S)N/N=C/c1cccc(OC)c1O [Compound H2L2] | 96.8 ± 3.5 | 97.2 ± 13.2 | 92.8 ± 3.1 | 83.3 ± 14.4 | – | – | – | – | – | – |
| Triton X-100 [reference compound] | – | – | – | – | – | – | – | – | – | Percentage values of hemolytic activity, hRBCs [5]: 100 ± 2.6% |
| OC(Cn1cncn1)(Cn1cncn1)c1ccc(F)cc1F [FCZ, fluconazole, reference compound] | – | – | – | – | – | – | – | – | – | Microbial growth, C. albicans (Table S1) ([4]; fluconazole): 10.0 ± 0.6; Percentage values of microbial growth, C. albicans ([4]; fluconazole at 1.6 μM): 10.0 ± 0.6% |
| CCNC(=S)N/N=C/c1cccc(OC)c1[O-].[Cl-].[Cu+2] [Compound 4] | – | – | – | – | – | 9.1 ± 1.1 | 110.5 ± 4.8 | 15.6 ± 5.5 | <5 | IC50 [1, 8]: 3.5 µM; Antimicrobial activity against S. aureus (in words) [1]: completely inhibited; also recorded: good activity; also recorded: micromolar activity; CC50 [2, 8]: 1.4 µM; IC50 [4, 8]: 54.8 µM; Antimicrobial activity against C. albicans (in words) ([4]; up to 100 μM): slightly interfered; Plasmid DNA cleavage in presence of H2O2 (in words) (pmaxGFP plasmid DNA): extensive damage to the plasmid DNA |
| CCNC(=S)N/N=C/c1cc(S(=O)(=O)[O-])cc(OC)c1O.[Na+] [NaH2L5] | 98.4 ± 3.0 | 90.0 ± 4.9 | 107.4 ± 0.9 | 95.6 ± 7.5 | – | – | – | – | – | – |
| COc1cc(S(=O)(=O)[O-])cc(/C=N/NC(N)=O)c1O.[Na+] [NaH2L6] | 86.5 ± 1.9 | 90.3 ± 0.8 | 97.1 ± 0.7 | 85.3 ± 1.6 | – | – | – | – | – | – |
